Patent publication US20240025946A1, “Cyclic Tetrapeptides and Metal Complexes Thereof” (priority 2020, published 2024)
“And” between values parts separate entries of the source, which are not always exact repeats. Equal entries are not always repeated. Numbered stars: 1 amine (or outer) side, 2 acyl side, 3 side chain; on linkers, the order of the positions; unused ones are H or OH. Square brackets hold non-standard residues; d marks the D form. Ends that are not written are not given here. βAsp = O=C(O)[C@H](CC(=O)[*:2])N[*:1]

Tests used:
[1] = test system: male mice (C57BL/6); assay: Pb-poisoned mice: blood lead level and urinary Pb by ICP-MS; type: in vivo; settings: 30 mg kg^−1 day^−1, days 10-16; for BLL: blood on day 18, eight mice; for Urinary Pb (ppm): urine on day 18
Description: Peptide 8a was then tested in mice. 40 male mice (C57BL/6) aged 6-8 weeks were provided with 20 mM Pb(OAc)2 solution as the sole water supply for seven days (days 1-7). This poisoning route mimics chronic exposure in humans. Two days after returning to clean water (day 9), they were randomly divided into five groups of eight mice. They received a single treatment per day for seven days (days 10-16) of either CaNa2EDTA, DMSA, or 8a at a concentration of 30 mg kg^−1 except for group 1 that served as the negative control (Table 3).
Blood samples (100 μL) were collected before dosing the mice on days 10-15 and on day 18, which is two days after the last dosing and the day by which the experiment was terminated. Urine was also collected from 34 animals on day 18 and was kept frozen until analysis.

[2] = test system: HT-29 cells; assay: In vitro toxicity test, crystal violet; type: cell-based, human; settings: HT-29, 24 h; for IC50: concentration at 50% viability, mean (SD), n.d. = not detected as it is too high
Description: 96-well plates were prepared such that every well contains 10,000 cells in 100 μL medium, and the cells were allowed to adhere overnight.
To all wells but the positive control, 10 μL of each solution of the examined CA (2.4, 6, 12, 24, 48, and 120 mM) were added to reach final concentrations of 0.2, 0.5, 1, 2, 4, and 10 mM. To the positive control wells, 10 μL of H2O was added. Each condition was performed in triplicates. The plates were incubated at 37° C. and 5% CO2 for 24 h, after which the medium was removed, washed with fresh medium and 50 μL of crystal violet solution (0.5% crystal violet powder in 20 mL MeOH and 80 mL H2O) to each well and the plates were gently shaken (60 rpm) for 20 min. The plates were then washed with H2O until no more unbound dye was observed and allowed to dry overnight. 200 μL of MeOH were added to each well, and the plates were gently shaken (60 rpm) for 20 min, after which their absorbance at 560 nm was read with a plate reader. The toxicity of each concentration of CA was calculated according to equation 3:
(§1) A[CAx]—absorbance of the pre-toxified well in the presence of X mM of CA
(§2) A[blank]—absorbance of blank wells (contain nothing)
A[POS]—absorbance of well that contains no CA
(§3) Each experiment was performed on three independent occasions. Values are mean±SD of >3 repeats each performed in triplicate.

[3] = test system: DH5α E. coli; assay: In vivo recovery test: Pb detoxification of poisoned bacteria, colony counting; type: cell-based; settings: for Recovery DH5α (%): highest concentration 120 mM (10 equiv.), Pb(NO3)2 12 mM, vs poisoned untreated cells, mean; for detoxification ability in poisoned E. coli (in words): compared to the benchmark compounds, FIG. 2a
Description: (§4) Desalted peptides were then assessed for their ability to detoxify Pb (FIGS. 2a-d). The inventors designed two assays for rapid and reliable screening of potential CAs both in vivo on bacteria and then in vitro on human cell culture. Briefly, DH5a or HT-29 cells were first exposed to Pb(NO3)2 slightly below the minimal inhibitory concentration and then treated with various concentrations of the investigated CA, ranging from 0.1 to 10 equivalents. The viability of the cells was determined by colony counting or by crystal violet (Feoktistova et al, 2016), for the bacteria and the human cells, respectively, and was compared to poisoned cells that were not treated with any CA as the negative control. […] On the other hand, testing the compounds on human cells cannot be performed with insoluble compounds but is more relevant for medicinal purposes.
HRMS (ESI) m/z calculated for C16H26N4O4SNa^+ [M+Na]^+ 427.14442; found: 427.14447 In vivo recovery tests A single colony of DH5a E. coli WT cells was grown overnight at 37° C. and 220 rpm in Tris Minimal Medium (TMM, pH 6.0; 5 mL) without antibiotics. The culture was then diluted to an OD600 of 0.03 with additional TMM to a total volume of 5 mL, and its OD600 was monitored. Upon cell density of 0.25 (which was achieved after 3-5 h), 1 mL of the culture was transferred into a cell culture tube and was labeled as the positive control. To additional 3 mL of the culture, 36 μL of Pb(NO3)2 1 M were added (final concentration of 12 mM). Both cultures were shaken at 37° C. and 220 rpm for an additional 5 h.
Aqueous stock solutions of each CA were plated on freshly prepared agar-LB plates such that the final concentration of each compound is equal to 0.5, 1, 2, 5, and 10 equivalents, compared to the amount of Pb(NO3)2 in 50 μL pre-toxified culture. The stock solutions were prepared such that plating and equally spreading 30 μL of each solution will provide the desired amount of CA. To additional two plates, 30 μL of H2O was added.
50 μL of the pre-toxified culture were homogenously spread to each CA-containing plate, 5 h after adding the metal to the culture. The Pb-containing culture was also plated on one of the two H2O-containing plates and was labeled as the negative control. Lastly, 50 μL of the non-toxified culture were platted on the second H2O-containing plate and was labeled as positive control. All plates (positive and negative control and five plates for each examined compound) were then incubated at 37° C. overnight. The plates were then imaged, and the colonies were counted (with Vilber Quantum Visualization System). The recovery of each concentration of CA was calculated according to equation 1: […]
#CAx—number of colonies of pre-toxified culture in a plate containing X mM of CA
#NEG—number of colonies of pre-toxified culture in a plate containing no CA
as §3

[4] = test system: HT-29 cells; assay: In vitro recovery test: Pb detoxification of poisoned human cells, crystal violet; type: cell-based; settings: for Recovery HT-29 (%): highest concentration 10 mM (5 equiv.), Pb(NO3)2 2 mM, vs poisoned untreated cells, mean, SD
Description: as §4
96-well plates were prepared such that every well contains 10,000 cells in 100 μL medium, and the cells were allowed to adhere overnight. To all wells but the positive control, 10 μL of 22 mM Pb(NO3)2 were added (final concentration 2 mM). 10 μL of H2O was added to the positive control wells. 60 min after addition of metal, 10 μL of each solution of the examined CA (2.4, 6, 12, 24, 48, and 120 mM) were added to reach final concentrations of 0.2, 0.5, 1, 2, 4, and 10 mM (which are 0.1, 0.25, 0.5, 1, 2, and 5 equivalents, respectively). To the positive control wells containing no metal and the negative control wells containing metal but no CA, 10 μL of H2O were added. Each condition was performed in triplicates. The plates were incubated at 37° C. and 5% CO2 for an additional 23 h, after which the medium was removed, washed with fresh medium and 50 μL of crystal violet solution (0.5% crystal violet powder in 20 mL MeOH and 80 mL H2O) to each well and the plates were gently shaken (60 rpm) for 20 min. The plates were then washed with H2O until no more unbound dye was observed and allowed to dry overnight. 200 μL of MeOH were added to each well, and the plates were gently shaken (60 rpm) for 20 min, after which their absorbance at 560 nm was read with a plate reader. The recovery of each concentration of CA was calculated according to equation 2:
as §1, §2
A[NEG]—absorbance of the pre-toxified well that contains no CA
as §3

[5] = Aqueous solubility of the peptides; type: physicochemical; settings: for Aqueous solubility: soluble^b = with the addition of 2 equiv. NaOH or 1 equiv. of Ca(OH)2
Text: Attempts to solubilize them, including in different pH conditions, formulation with PEG or co-solvent systems with DMSO failed. Therefore, two analogs of 1 where βAla is substituted by PAsp or PhGlu, to form peptides 1a and 1b, respectively, were synthesized. […] Their low activity might be related to either (a) competition in coordination with Pb^2+ by the two carboxylates, which destabilizes the complexation, or (b) a decrease in their metal selectivity and coordination alkali or alkaline earth metal ions.

[6] = inhibition at the highest concentration (10 mM), mean, SD

Compound	BLL ([1]; Oral)	Urinary Pb (ppm) ([1]; Oral)	IC50 ([2]; Homo sapiens)	inhibition at 10000 µM ([2]; Homo sapiens, inhibition at the highest concentration (10 mM), mean, SD, read-out: Toxicity Maximal inhibition (%))	Recovery DH5α (%) [3]	Recovery HT-29 (%) [4]	BLL ([1]; IV)	Urinary Pb (ppm) ([1]; IV)	IC50 [2]	Toxicity Maximal inhibition (%) [2, 6]	solubility as Na or Ca salts ([5]; Na or Ca salts)	Aqueous solubility [5]	detoxification ability in poisoned E. coli (in words) [3]	effect of the counter cation (Ca vs. Na salt) on detoxification activity ([4]; HT-29, FIG. 2d)
O=C(O)C(S)C(S)C(=O)O (centres unmarked) [DMSA, dimercaptosuccinic acid]	23.3 ± 2.3 µg/dL	340 ± 28 ppm	3.7 mM	77%	165%	110±10% and 110%	–	–	–	–	–	–	–	–
O=C([O-])CN(CCN(CC(=O)[O-])CC(=O)[O-])CC(=O)[O-].[Ca+2].[Na+].[Na+] [Na2CaEDTA]	–	–	–	–	182%	95±16% and 95%	25.7 ± 1.6 µg/dL	210 ± 30 ppm	3.9 mM	63%	–	–	–	–
C[βAsp]C[βAsp] (cysteine pairing not given here) [1a]	–	–	–	–	2%	106%	–	–	–	0%	high solubility	soluble^b	unsatisfied	–
cyc[Cys-βAla-Asp-βAla] [peptide 8]	–	–	–	–	279%	–	–	–	–	15±5%	–	soluble^b	outstanding results	barely affected by the counter cation
